# Reference: patent US20170143712A1, “Methods of Treating Cancers, Immune and Autoimmune Diseases, and Inflammatory Diseases Based on BTK Occupancy and BTK Resynthesis Rate” (Acerta Pharma B.V., priority 2014, published 2017)
# Like-named read-outs stand apart in the source and are kept apart here.
# Experiments:
# B cell receptor (BCR) [1] = assay: Ex vivo anti-IgM induced CD86 and CD69 expression on splenocyte B cells after oral dosing of mice; assay type: in vivo, mouse; conditions: single oral 25 mg/kg; for inhibition at 25 mg/kg: Mus musculus, B-cell, 3-24 hours, read-out: CD69 % inhibition over the entire time course; for inhibition of ex vivo anti-IgM induced responses in B cells: 3 hours post-dose
# Method: (§1) B cell stimulation through the B cell receptor (BCR) with antibodies (e.g., anti-IgM) results in the activation of BTK and subsequent cellular changes, including the upregulation of various cell surface receptors. Measuring the inhibition of BCR induced protein phosphorylation downstream of Btk, and the inhibition of surface receptor upregulation provides a way to assess the Btk inhibitor activity. In the first study, the BTK target occupancy in splenocytes was measured over time, providing evidence for BTK resynthesis in the tissue compartment of interest.
# (§2) Mice were sacrificed at 3, 6, 12, 18, and 24 hours after treatment with the BTK inhibitors (FIG. 27A, FIG. 27B, and FIG. 27C). Spleens were harvested and splenocyte preparations were made for flow cytometry analysis of B cell functions. Fresh or cryopreserved splenocytes were cultured with a-IgM to stimulate BCR, and the up-regulation of CD69, an early functional marker of B cell activation, was analyzed by flow cytometry.
# S6 phosphorylation = assay: Basal and anti-IgM induced S6 phosphorylation in splenocytes after oral dosing of mice; assay type: in vivo, mouse; conditions: single oral 25 mg/kg; rank order Formula (II)>ibrutinib>Formula (XVII)
# Method: as §1, §2
# A downstream marker of BTK activity, S6 phosphorylation, was also monitored in this study. […] In a second study, the effects of another inhibitor of BTK that covalently inactivates the kinase, Formula (XXI), were compared with Formula (II) to evaluate the return of BCR function and B cell activation, as illustrated in FIG. 29A and FIG. 29B.
# [2] = test system: established type II collagen-induced arthritis (CIA) in DBA/1 mice; assay: 14-day mouse established type II collagen-induced arthritis (CIA), PO QD (Example 10); assay type: in vivo; conditions: for AUC (All Paws) - Corrected for Initial Score / Change in Body Weight (g) / Histopathology Summed Score Knees / Histopathology Summed Score Paws / Histopathology Summed Score Six-Joints / Paw Score AUC (All Paws): mean(SE); for disease-induced body weight loss (percent change from baseline) vs vehicle controls / arthritis scores measured daily vs vehicle controls: p<0.05 on the days printed; for arthritis scores measured daily vs vehicle controls: all paws
# Method: Prior to dosing, the candidate anti-inflammatory agents were reconstituted either by vortexing or stirring. The candidate anti-inflammatory agents were administered to the DBA/1 mice daily (QD) by the oral (PO) route.
# Immunization with heterologous type II collagen (CII) induces arthritis in mice of the DBA/1 strain, which is genetically susceptible to this disease. To develop an experimental model of autoimmunity more adequate for the study of human rheumatoid arthritis (RA), male DBA/1 mice were injected intradermally (ID) with bovine type II collagen to induce arthritis as reported by Trentham et al (Trentham D E, Townes A S, Kang A H Autoimmunity to type II collagen: an experimental model of arthritis. J. Exper. Med. 1977, 146:857-868) and Bendele A (Bendele A, Animal models of rheumatoid arthritis. J. Musculoskelet. Neuronal Interact. 2001, 1(4):377-85). Male DBA/1 mice (n=114) that were 6-7 weeks old and weighed approximately 18-27 grams (mean 22 g) at enrollment (arthritis day 1) were obtained from Taconic Farms, Inc. The male DBA/1 mice were at least 6 weeks old at time of first immunization and were housed 3-5/cage in shoe-box polycarbonate cages with wire tops, wood chip bedding, and suspended food and water bottles. These animals were identified by a distinct number of ink marks at the base of the tail delineating animal number. After enrollment, all cages were labeled with protocol number, group number, and animal numbers.
# The male DBA/1 (n=10/group for arthritis) were anaesthetized with Isoflurane, shaved at the base of the tail, and injected intradermally with 150 μL of Freund's Complete Adjuvant (Difco, Detroit, Mich.) containing bovine type II collagen (BBP, batch #7) (1 mg/ml) at the base of the tail on day 0 and again on day 21. […] Randomization was done after swelling was obviously established in at least one paw (score of 1) and attempts were made to ensure approximately equal mean scores of 0.5-1 across groups at the time of enrollment. […] The male DBA/1 mice were terminated on arthritis day 14 (3 hours post-dose).
# Efficacy evaluation of the administered anti-inflammatory agents was based on animal body weights, clinical arthritis scores, arthritis scores expressed as area under the curve (AUC), and histopathology on fore paws, hind paws, and knees. Histopathology results were expressed as 4 paws, knees only, or 6 joints (knees included). Day 13 was used as the endpoint for analysis of body weight change since the male DBA/1 mice were fasted overnight prior to necropsy on day 14.
# [3] = test system: BCR signaling through BTK; assay: Anti-IgM induced CD86 and CD69 on splenocyte B cells of CIA mice; assay type: in vivo, mouse; conditions: splenocytes 3 hr after last dosing on day 14
# Method: (§3) FIG. 45 illustrates changes in a functional measure of BCR signalling through the CD86 marker. Mouse splenocytes were isolated from spleens from mice that were part of the mouse CIA study semi-therapeutic protocol, 3 hr after the last dosing on day 14 of the treatment and cryopreserved. After thawing, inhibition of anti-IgM-induced PD markers CD86 and CD69 on mouse splenocyte B cells were measured. Error bars represent the standard deviation for the 3 sets of splenocytes analyzed.
# as §3, with “FIG. 46” for “FIG. 45”, “the CD69” for “the CD86”
# Inhibition of the BCR signaling through BTK was evaluated by ex vivo stimulation of splenocytes using IgM and evaluation of CD86 and CD69 as functional responses of BCR stimulation.
# B cell receptor (BCR) [4] = assay: Ex vivo anti-IgM induced CD86 and CD69 expression on splenocyte B cells after oral dosing of mice; assay type: in vivo; conditions: Mus musculus, single oral 25 mg/kg, 3-24 hours, read-out: CD86 % inhibition over the entire time course
# psoriasis = conditions: tyrosine kinase inhibitors used for malignancies; cited from earlier work
# BTK = target: T1, BTK (Mus musculus, UniProt P35991); assay: BTK target occupancy in mouse splenocytes after a single oral dose; assay type: in vivo; conditions: single oral 25 mg/kg, 3 hours
# T1 construct: from tissue; host or cells: mouse spleen (splenocytes), animals dosed in vivo; A19 used DBA/1 mice with collagen-induced arthritis
# T1 sequence (P35991 whole entry): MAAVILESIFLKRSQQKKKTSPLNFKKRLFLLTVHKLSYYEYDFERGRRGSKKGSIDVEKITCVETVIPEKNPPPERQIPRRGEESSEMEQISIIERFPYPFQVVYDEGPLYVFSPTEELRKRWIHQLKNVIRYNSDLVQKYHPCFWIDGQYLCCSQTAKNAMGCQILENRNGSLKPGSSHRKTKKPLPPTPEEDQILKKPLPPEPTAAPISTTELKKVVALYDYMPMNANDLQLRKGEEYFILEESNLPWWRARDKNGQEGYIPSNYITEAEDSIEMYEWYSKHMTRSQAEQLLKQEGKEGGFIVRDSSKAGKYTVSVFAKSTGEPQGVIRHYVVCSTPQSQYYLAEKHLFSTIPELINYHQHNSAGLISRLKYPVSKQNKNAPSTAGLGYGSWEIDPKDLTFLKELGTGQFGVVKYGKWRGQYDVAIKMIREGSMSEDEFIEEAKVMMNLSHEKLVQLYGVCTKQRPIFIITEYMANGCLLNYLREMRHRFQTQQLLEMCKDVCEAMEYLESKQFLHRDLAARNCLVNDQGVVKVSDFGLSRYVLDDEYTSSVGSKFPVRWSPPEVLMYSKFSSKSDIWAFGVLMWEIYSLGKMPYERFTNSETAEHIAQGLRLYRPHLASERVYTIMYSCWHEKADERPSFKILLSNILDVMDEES
smiles,measurement,setting,value
"C=CC(=O)N1CCC[C@@H](n2nc(-c3ccc(Oc4ccccc4)cc3)c3c(N)ncnc32)C1 [ibrutinib, (R)-1-(3-(4-amino-3-(4-phenoxyphenyl)-1H-pyrazolo[3,4-d]pyrimidin-1-yl)piperidin-1-yl)prop-2-en-1-one]",inhibition at 25 mg/kg,B cell receptor (BCR) [1],83.4%
same,inhibition of ex vivo anti-IgM induced responses in B cells,B cell receptor (BCR) [1],near complete inhibition
same,inhibition of CD86 and CD69 expression,B cell receptor (BCR) [1]; persisting for 24 hours,partial inhibition
same,basal state and anti-IgM induced S6 phosphorylation,S6 phosphorylation,inhibited both basal state and anti-IgM induced S6 phosphorylation
same,AUC (All Paws) - Corrected for Initial Score,[2]; 1 mg/kg PO QD,20.81(4.47)
same,Change in Body Weight (g),[2]; 1 mg/kg PO QD,−1.28(0.69) g
same,Histopathology Summed Score Knees,[2]; 1 mg/kg PO QD,‡10.15(1.16)
same,Histopathology Summed Score Paws,[2]; 1 mg/kg PO QD,10.30(1.84)
same,Histopathology Summed Score Six-Joints,[2]; 1 mg/kg PO QD,10.25(1.36)
same,Paw Score AUC (All Paws),[2]; 1 mg/kg PO QD,28.29(5.18)
same,disease-induced body weight loss (percent change from baseline) vs vehicle controls,[2]; 1 mg/kg PO QD,significantly inhibited toward normal
same,daily arthritis scores vs vehicle controls,"[2]; 1 mg/kg PO QD, prophylactic paws",significantly reduced toward normal
same,"six-joint histopathology, reduction of summed scores vs vehicle controls",[2]; 5 mg/kg PO QD,79%
same,total body weight loss from enrollment to study termination,[2]; 5 mg/kg PO QD,significantly inhibited
same,arthritis scores measured daily vs vehicle controls,[2]; 5 mg/kg PO QD,significantly reduced toward normal
same,AUC (All Paws) - Corrected for Initial Score,[2]; 5 mg/kg PO QD,*3.68(2.18)
same,Change in Body Weight (g),[2]; 5 mg/kg PO QD,*0.45(0.65) g
same,Histopathology Summed Score Paws,[2]; 5 mg/kg PO QD,*3.63(1.07)
same,Histopathology Summed Score Six-Joints,[2]; 5 mg/kg PO QD,*3.11(0.95)
same,disease-induced body weight loss (percent change from baseline) vs vehicle controls,[2]; 5 mg/kg PO QD,significantly inhibited toward normal
same,daily arthritis scores vs vehicle controls,"[2]; 5 mg/kg PO QD, prophylactic paws",significantly reduced toward normal
same,"six-joint histopathology, reduction of summed scores vs vehicle controls",[2]; 25 mg/kg PO QD,94%
same,total body weight loss from enrollment to study termination,[2]; 25 mg/kg PO QD,significantly inhibited
same,arthritis scores measured daily vs vehicle controls,[2]; 25 mg/kg PO QD,significantly reduced toward normal
same,AUC (All Paws) - Corrected for Initial Score,[2]; 25 mg/kg PO QD,*−4.09(1.58)
same,Change in Body Weight (g),[2]; 25 mg/kg PO QD,*0.83(0.62) g
same,Histopathology Summed Score Knees,[2]; 25 mg/kg PO QD,*0.65(0.29)
same,Histopathology Summed Score Paws,[2]; 25 mg/kg PO QD,*0.91(0.48)
same,Histopathology Summed Score Six-Joints,[2]; 25 mg/kg PO QD,*0.83(0.30)
same,Paw Score AUC (All Paws),[2]; 25 mg/kg PO QD,*3.06(1.08)
same,disease-induced body weight loss (percent change from baseline) vs vehicle controls,[2]; 25 mg/kg PO QD,significantly inhibited toward normal
same,daily arthritis scores vs vehicle controls,"[2]; 25 mg/kg PO QD, prophylactic paws",significantly reduced toward normal
same,daily arthritis scores vs vehicle controls,"[2]; 25 mg/kg PO QD, therapeutic paws",significantly reduced toward normal
same,spleen weights compared to vehicle controls,[2]; all dose groups PO QD,not significantly affected
same,BCR-mediated signaling (anti-IgM induced CD86 and CD69),[3],dose-responsive decreases in BCR-mediated signaling
same,inhibition at 25 mg/kg,B cell receptor (BCR) [4],62.9%
Cc1nc(Nc2ncc(C(=O)Nc3c(C)cccc3Cl)s2)cc(N2CCN(CCO)CC2)n1 [dasatinib],effect on psoriasis / skin in patients,psoriasis,has not been reported to improve psoriasis
Cc1ccc(C(=O)Nc2ccc(CN3CCN(C)CC3)c(C(F)(F)F)c2)cc1C#Cc1cnc2cccnn12 [Ponatinib],effect on psoriasis / skin in patients,psoriasis,induces an almost psoriasis-like disease
Cc1ccc(NC(=O)c2ccc(CN3CCN(C)CC3)cc2)cc1Nc1nccc(-c2cccnc2)n1 [imatinib],effect on psoriasis / skin in patients,psoriasis,may cause worsening of psoriasis
"C=CC(=O)Nc1cccc(Nc2nc(Nc3ccc(OCCOC)cc3)ncc2F)c1 [Formula (XVII), N-(3-((5-fluoro-2-((4-(2-methoxyethoxy)phenyl)amino)pyrimidin-4-yl)amino)phenyl)acrylamide]",inhibition at 25 mg/kg,B cell receptor (BCR) [1],44.8%
same,inhibition of ex vivo anti-IgM induced responses in B cells,B cell receptor (BCR) [1],incomplete inhibition
same,basal state and anti-IgM induced S6 phosphorylation,S6 phosphorylation,inhibited both basal state and anti-IgM induced S6 phosphorylation
same,BTK target occupancy in splenocytes,BTK,incomplete BTK target occupancy
same,inhibition at 25 mg/kg,B cell receptor (BCR) [4],28.1%
